Measured values from ChEMBL document CHEMBL5543168, “Discovery of Urea Derivatives of Celastrol as Selective Peroxiredoxin 1 Inhibitors against Colorectal Cancer Cells” (J Med Chem, 2024).

Assays:
Peroxiredoxin-1 = target: T1, Peroxiredoxin-1 (Homo sapiens, UniProt Q06830); test: Inhibition of recombinant PRDX1 (unknown origin) using H2O2 as substrate preincubated for 0.5 hrs followed by substrate addition by TRX-TrxR-NADPH coupling assay
T1 sequence (Q06830 whole entry): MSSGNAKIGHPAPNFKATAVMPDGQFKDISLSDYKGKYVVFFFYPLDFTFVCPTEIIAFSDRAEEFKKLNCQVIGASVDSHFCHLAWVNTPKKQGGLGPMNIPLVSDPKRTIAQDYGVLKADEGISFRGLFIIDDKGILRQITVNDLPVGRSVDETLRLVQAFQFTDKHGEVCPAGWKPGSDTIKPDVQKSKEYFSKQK

SW-620 [1] = test: Inhibition of cell viability in human SW620 cells incubated for 72 hrs by Cell Titer Glo assay; format: functional, cell-based; conditions: SW-620, 72 h
HCT-116 = test: Inhibition of cell viability in human HCT-116 cells incubated for 72 hrs by Cell Titer Glo assay; format: functional, cell-based; conditions: HCT-116, 72 h
[2] = Acute toxicity in C57BL/[…] 6J mouse assessed as animal death at 20 mg/kg, ip measured for 2 days; format: organism-based; conditions: in vivo, 48 h, time 2 day
[3] = Acute toxicity in C57BL/[…] 6J mouse assessed as pathological change in heart at 20 mg/kg, ip measured for 2 weeks by H and E staining based analysis; format: organism-based; conditions: in vivo, 336 h
[4] = Acute toxicity in C57BL/[…] 6J mouse assessed as pathological change in liver at 20 mg/kg, ip measured for 2 weeks by H and E staining based analysis; format: organism-based; conditions: in vivo, 336 h
[5] = Acute toxicity in C57BL/[…] 6J mouse assessed as pathological change in spleen at 20 mg/kg, ip measured for 2 weeks by H and E staining based analysis; format: organism-based; conditions: in vivo, 336 h
[6] = Acute toxicity in C57BL/[…] 6J mouse assessed as pathological change in kidney at 20 mg/kg, ip measured for 2 weeks by H and E staining based analysis; format: organism-based; conditions: in vivo, 336 h
SW-620 [7] = test: Antitumor activity against human SW620 cells xenografted in BALB/c nude mouse at 2 mg/kg, ip qd for 16 days relative to control; format: functional; conditions: SW-620, 384 h, time 16 day, read-out: TGI
[8] = Toxicity in BALB/c nude mouse xenografted with human SW620 cells assessed as body weight loss at 2 mg/kg, ip qd for 7 days; format: organism-based, SW-620; conditions: in vivo, 168 h, time 7 day
SW-620 [9] = test: cells; conditions: Homo sapiens, SW-620, 48 h, read-out: Activity
Description: Induction of apoptosis in human SW620 cells assessed as viable cells at 0.5 uM incubated for 48 hrs by Annexin V-FITC/PI staining based flow cytometry (Rvb = 90.7 %)

SW-620 [10] = test: cells; conditions: Homo sapiens, SW-620, 48 h, read-out: Activity; remark: listed apart in the source
Description: Induction of apoptosis in human SW620 cells assessed as viable cells at 1 uM incubated for 48 hrs by Annexin V-FITC/PI staining based flow cytometry (Rvb = 90.7 %)

SW-620 [11] = test: cells; conditions: Homo sapiens, SW-620, 48 h, read-out: Activity; remark: listed apart in the source
Description: Induction of apoptosis in human SW620 cells assessed as viable cells at 2 uM incubated for 48 hrs by Annexin V-FITC/PI staining based flow cytometry (Rvb = 90.7 %)

IC50 (Peroxiredoxin-1) [nM] | IC50 (SW-620 [1]) [nM] | IC50 (HCT-116) [nM] | Structure (SMILES) | other results
500 | 1100 | 2500 | CC1=C(O)C(=O)C=C2C1=CC=C1[C@@]2(C)CC[C@@]2(C)[C@@H]3C[C@](C)(NC(=O)NC(CO)(CO)CO)CC[C@]3(C)CC[C@]12C | 
360 | 350 | 650 | CCOC(=O)C1(NC(=O)N[C@]2(C)CC[C@]3(C)CC[C@]4(C)C5=CC=C6C(=CC(=O)C(O)=C6C)[C@]5(C)CC[C@@]4(C)[C@@H]3C2)CC1 | 
460 | 190 | 340 | COC(=O)[C@@H](NC(=O)N[C@]1(C)CC[C@]2(C)CC[C@]3(C)C4=CC=C5C(=CC(=O)C(O)=C5C)[C@]4(C)CC[C@@]3(C)[C@@H]2C1)C(C)C | 
530 | 600 | 840 | CC1=C(O)C(=O)C=C2C1=CC=C1[C@@]2(C)CC[C@@]2(C)[C@@H]3C[C@](C)(NC(=O)N[C@H](C)CO)CC[C@]3(C)CC[C@]12C | 
370 | 350 | 570 | COC(=O)CC[C@H](NC(=O)N[C@]1(C)CC[C@]2(C)CC[C@]3(C)C4=CC=C5C(=CC(=O)C(O)=C5C)[C@]4(C)CC[C@@]3(C)[C@@H]2C1)C(=O)OC | 
490 | 330 | 800 | COC(=O)[C@@H](NC(=O)N[C@]1(C)CC[C@]2(C)CC[C@]3(C)C4=CC=C5C(=CC(=O)C(O)=C5C)[C@]4(C)CC[C@@]3(C)[C@@H]2C1)[C@@H](C)O | 
310 | 420 | 560 | CC1=C(O)C(=O)C=C2C1=CC=C1[C@@]2(C)CC[C@@]2(C)[C@@H]3C[C@](C)(NC(=O)N[C@@H](C)C(N)=O)CC[C@]3(C)CC[C@]12C | 
470 | 640 | 740 | COC(=O)[C@H](CO)NC(=O)N[C@]1(C)CC[C@]2(C)CC[C@]3(C)C4=CC=C5C(=CC(=O)C(O)=C5C)[C@]4(C)CC[C@@]3(C)[C@@H]2C1 | 
540 | 1400 | 1800 | COC(=O)[C@H](CCSC)NC(=O)N[C@]1(C)CC[C@]2(C)CC[C@]3(C)C4=CC=C5C(=CC(=O)C(O)=C5C)[C@]4(C)CC[C@@]3(C)[C@@H]2C1 | 
360 | 260 | 440 | COC(=O)[C@@H]1C[C@@H](O)CN1C(=O)N[C@]1(C)CC[C@]2(C)CC[C@]3(C)C4=CC=C5C(=CC(=O)C(O)=C5C)[C@]4(C)CC[C@@]3(C)[C@@H]2C1 | 
380 | 390 | 800 | COC(=O)C1(NC(=O)N[C@]2(C)CC[C@]3(C)CC[C@]4(C)C5=CC=C6C(=CC(=O)C(O)=C6C)[C@]5(C)CC[C@@]4(C)[C@@H]3C2)COC1 | 
470 | 280 | 230 | COC(=O)[C@@H]1CCCN1C(=O)N[C@]1(C)CC[C@]2(C)CC[C@]3(C)C4=CC=C5C(=CC(=O)C(O)=C5C)[C@]4(C)CC[C@@]3(C)[C@@H]2C1 | 
420 | 220 | 430 | COC(=O)[C@H](Cc1ccc(O)cc1)NC(=O)N[C@]1(C)CC[C@]2(C)CC[C@]3(C)C4=CC=C5C(=CC(=O)C(O)=C5C)[C@]4(C)CC[C@@]3(C)[C@@H]2C1 | 
410 | 790 | 1000 | CC1=C(O)C(=O)C=C2C1=CC=C1[C@@]2(C)CC[C@@]2(C)[C@@H]3C[C@](C)(NC(=O)NCCOCCO)CC[C@]3(C)CC[C@]12C | 
460 | 2100 | 3100 | CC1=C(O)C(=O)C=C2C1=CC=C1[C@@]2(C)CC[C@@]2(C)[C@@H]3C[C@](C)(NC(=O)N[C@H]4C[C@H](CO)[C@H](O)C4)CC[C@]3(C)CC[C@]12C | 
340 | 310 | 560 | COC(=O)[C@H](Cc1c[nH]c2ccccc12)NC(=O)N[C@]1(C)CC[C@]2(C)CC[C@]3(C)C4=CC=C5C(=CC(=O)C(O)=C5C)[C@]4(C)CC[C@@]3(C)[C@@H]2C1 | 
330 | 480 | 680 | CC1=C(O)C(=O)C=C2C1=CC=C1[C@@]2(C)CC[C@@]2(C)[C@@H]3C[C@](C)(NC(=O)N[C@H]4CCOC4=O)CC[C@]3(C)CC[C@]12C | 
> 20000 | > 20000 | > 20000 | CC1=C(O)C(=O)C=C2C1=CC=C1[C@@]2(C)CC[C@@]2(C)[C@@H]3C[C@](C)(NC(=O)NC4(C(=O)O)COC4)CC[C@]3(C)CC[C@]12C | 
640 | 490 | 830 | COC(=O)CNC(=O)N[C@]1(C)CC[C@]2(C)CC[C@]3(C)C4=CC=C5C(=CC(=O)C(O)=C5C)[C@]4(C)CC[C@@]3(C)[C@@H]2C1 | 
400 | 330 | 410 | COC(=O)[C@H](CCCCNC(=O)OC(C)(C)C)NC(=O)N[C@]1(C)CC[C@]2(C)CC[C@]3(C)C4=CC=C5C(=CC(=O)C(O)=C5C)[C@]4(C)CC[C@@]3(C)[C@@H]2C1 | 
450 | 1900 | 2700 | CC1=C(O)C(=O)C=C2C1=CC=C1[C@@]2(C)CC[C@@]2(C)[C@@H]3C[C@](C)(NC(=O)NC(CO)CO)CC[C@]3(C)CC[C@]12C | 

Structure (SMILES) | IC50 (Peroxiredoxin-1) [nM] | IC50 (SW-620 [1]) [nM] | IC50 (HCT-116) [nM] | other results
CC1=C(O)C(=O)C=C2C1=CC=C1[C@@]2(C)CC[C@@]2(C)[C@@H]3C[C@](C)(C(=O)O)CC[C@]3(C)CC[C@]12C [CELASTROL] |  | 670 | 1400 | Activity [2]: Toxic; Activity [3]: Toxic; Activity [4]: Toxic; Activity [5]: Toxic; Activity [6]: Toxic; inhibition in vivo at 2 mg/kg (SW-620 [7]): 28%; Activity [8]: Toxic; viability at 0.5 µM (SW-620 [9]): 87.4%; viability at 1 µM (SW-620 [10]): 84.2%; viability at 2 µM (SW-620 [11]): 27.4%
COC(=O)[C@H](C)NC(=O)N[C@]1(C)CC[C@]2(C)CC[C@]3(C)C4=CC=C5C(=CC(=O)C(O)=C5C)[C@]4(C)CC[C@@]3(C)[C@@H]2C1 | 490 | 330 | 800 | 
